Data: patent publication US8957184B2, “Pro-apoptotic peptides” (priority 2009, dated 2015)
Read-outs that look alike come from different tables or passages of the source. Ends that are not written are not given here.

Key:
[1] = system: Exponentially proliferating cells; test: Intracellular detection of biotinylated peptides (cell penetration); type: cell-based
Protocol: Exponentially proliferating cells were rinsed twice in PBS. A total of 6×10^4 cells per well were seeded in 24 well plates and incubated in RPMI-1640 at 37° C. After 24 h, biotinylated peptides were added and incubated with cells (4 h) for intracellular analysis. Cells were rinsed in PBS and fixed with 0.1% paraformaldehyde (PFA) for 10 min before adding […] of streptavidin-peroxidase. Then, cells were rinsed with PBS, incubated with di-amino-benzidyne (DAB) for 5 min, washed in PBS and analyzed by microscopy.

[2] = system: primary B cells from CLL patients; test: Effect of DPT-C9h on PBMC: B cells from CLL patients (annexin staining); type: cell-based, human
Protocol: PBMC (Peripheral Blood Mononuclear Cell) were isolated by Ficoll gradient centrifugation from healthy donors and CLL patients, cultured in complete RPMI medium and treated with 150 μM of DPT-C9h peptide. Upon 3 h of treatment, cells were washed and resuspended in complete RPMI medium. Apoptosis was estimated 6 h after washing using Annexin staining and specific markers for B cells (FIG. 4A), and for T, NK and monocytes (FIG. 4B). Apoptosis is represented as the percentage compared to cells treated with […].
PBMC were isolated by Ficoll gradient centrifugation from healthy donors and three different types of CLL patients: treated, non-treated and resistant. Cells were maintained in complete RPMI medium, treated with 150 μM of DPT-C9h peptide for 3 h and then washed and transferred to complete medium. Samples were analyzed at different times after washing. Apoptosis was estimated by annexin staining. The different populations were selected using specific markers. Apoptosis is represented as percentage compared to control non treated cells.
Mononuclear cells isolated from peripheral blood (PBMC) were prepared by Ficoll gradient centrifugation.
A total of 2.5×10^5 cells were washed with ice-cold PBS, diluted in ice-cold binding buffer and stained with annexin and propidium iodide (PI). Samples were maintained on ice for 10 min in the dark and then analyzed by flow cytometry.

[3] = system: bone marrow B cells from CLL patients; test: Effect of DPT-C9h on bone marrow cells, CLL patients; type: cell-based, human

Compound	internalization of peptide ([1]; data not shown)	other results
N=C(N)NCCC[C@H](NC(=O)[C@H](CCCNC(=N)N)NC(=O)[C@H](CCCNC(=N)N)NC(=O)[C@H](CCC(N)=O)NC(=O)[C@H](CCCNC(=N)N)NC(=O)[C@H](CCCNC(=N)N)NC(=O)[C@H](CCCCN)NC(=O)[C@H](CCCCN)NC(=O)[C@H](CCCNC(=N)N)NC(=O)CNC(=O)[C@@H](N)Cc1ccc(O)cc1)C(=O)O [Tat, YGRKKRRQRRR]	internalized	–
VKKKKIKREIKI [DPT-sh1, VKKKKIKREIKI]	internalized	–
VKKKKIKREIKILDESRAWQELIGDLTEIY [DPT-C9r, VKKKKIKREIKI-LDESRAWQELIGDLTEIY]	internalized	–
VKKKKIKREIKIYIETLDGILEQWARSEDL [DPT-C9, VKKKKIKREIKI-YIETLDGILEQWARSEDL]	–	internalization of peptide [1]: internalized
VKKKKIKREIKIYVETLDGIFEQWAHSEDL [DPT-C9h, VKKKKIKREIKI-YVETLDGIFEQWAHSEDL]	–	penetrating properties [2]: penetrating; cell penetrating activity [3]: cell penetrating
YIETLDGILEQWARSEDL [C9, YIETLDGILEQWARSEDL]	not internalized	–
